# Experimental data: patent US20150219624A1, “METHODS FOR IDENTIFYING ANTI-CANCER COMPOUNDS” (MEMORIAL SLOAN KETTERING CANCER CENTER, priority 2013, published 2015)
# Several values for one entry are separate records, joined by “and”; a condition that tells them apart may be missing. Identical values can stand only once.
# Experiment: In vivo toxicity studies (body and organ weights, hematology, clinical chemistry, histopathology)
# Settings: for CHOL, % ChVh / Ca, % ChVh / Cl, % ChVh / GLUC, % ChVh / K, % ChVh / Na, % ChVh / Na/K, % ChVh / P, % ChVh / CHOL, Mean / Ca, Mean / Cl, Mean / GLUC, Mean / K, Mean / Na, Mean / P, Mean: 0.2 mg/kg Female
# Protocol: Toxicity studies. Eight week-old C57Bl/6NTac female mice were randomly assigned to either control or treatment groups. Each treatment group received one daily dose of test article through i.p. injection over 5 consecutive days. Toxicity was monitored by weight loss and daily clinical observation for the 14 days following test article administration. 24 hours after the last test article administration 4 mice in each group were sacrificed and clinical chemistry, hematology and tissue specific histopathology were done at autopsy. The remaining mice (n=2 per group) were kept under observation for an additional 13 days; at that point all mice were sacrificed and clinical chemistry, hematology and tissue specific histopathology were done at time of autopsy.
# D) KOPT-K1 xenograft studies.
# [1] = 0.2 mg/kg, female, Day 5, % change of mean vs vehicle
# [2] = 0.2 mg/kg, female, Day 5, fold change of mean vs vehicle
# [3] = 0.2 mg/kg, female, Day 5, group mean
# [4] = 0.2 mg/kg, female, Day 5, individual animals
substance,measurement,setting,value
(±)-CR-31-B,"CHOL, % ChVh","Day 5, change vs vehicle",0.0%
same,"Ca, % ChVh","Day 5, change vs vehicle",2.2%
same,"Cl, % ChVh","Day 5, change vs vehicle",0.6%
same,"GLUC, % ChVh","Day 5, change vs vehicle",1.8%
same,"K, % ChVh","Day 5, change vs vehicle",−4.5%
same,"Na, % ChVh","Day 5, change vs vehicle",−0.2%
same,"Na/K, % ChVh","Day 5, change vs vehicle",1.4%
same,"P, % ChVh","Day 5, change vs vehicle",−14.6%
same,"CHOL, Mean","Day 5, group mean, N 4",66.0 mg/dL
same,"Ca, Mean","Day 5, group mean, N 4",9.1 mg/dL
same,"Cl, Mean","Day 5, group mean, N 4",114.0 mEq/L
same,"GLUC, Mean","Day 5, group mean, N 4",297.3 mg/dL
same,"K, Mean","Day 5, group mean, N 4",4.2 mEq/L
same,"Na, Mean","Day 5, group mean, N 4",149.0 mEq/L
same,"P, Mean","Day 5, group mean, N 4",7.0 mg/dL
same,"CHOL, % ChVh","Day 19, change vs vehicle",−2.3%
same,"Ca, % ChVh","Day 19, change vs vehicle",−3.2%
same,"Cl, % ChVh","Day 19, change vs vehicle",−1.3%
same,"GLUC, % ChVh","Day 19, change vs vehicle",−7.9%
same,"K, % ChVh","Day 19, change vs vehicle",−9.5%
same,"Na, % ChVh","Day 19, change vs vehicle",0.0%
same,"Na/K, % ChVh","Day 19, change vs vehicle",12.9%
same,"P, % ChVh","Day 19, change vs vehicle",50.0%
same,"CHOL, Mean","Day 19, group mean, N 2",65.0 mg/dL
same,"Ca, Mean","Day 19, group mean, N 2",9.2 mg/dL
same,"Cl, Mean","Day 19, group mean, N 2",114.5 mEq/L
same,"GLUC, Mean","Day 19, group mean, N 2",240.5 mg/dL
same,"K, Mean","Day 19, group mean, N 2",3.8 mEq/L
same,"Na, Mean","Day 19, group mean, N 2",148.0 mEq/L
same,"P, Mean","Day 19, group mean, N 2",10.2 mg/dL
same,ALB % ChVh,[1],3.3%
same,BASO % % ChVh,[1],−72.7%
same,BASO (K/uL) % ChVh,[1],−100.0%
same,BUN % ChVh,[1],3.0%
same,Body Weight % ChVh,[1],−3.8%
same,CRTN % ChVh,[1],11.1%
same,EOS % % ChVh,[1],−70.0%
same,EOS (K/uL) % ChVh,[1],0.0%
same,GLOB % ChVh,[1],5.9%
same,HCT % % ChVh,[1],3.4%
same,HGB % ChVh,[1],4.4%
same,LYM % % ChVh,[1],−14.6%
same,LYM (K/uL) % ChVh,[1],−21.2%
same,Left Kidney (% body wt) % ChVh,[1],−10.5%
same,Left Kidney (gm) % ChVh,[1],−12.5%
same,Liver (% body wt) % ChVh,[1],2.1%
same,Liver (gm) % ChVh,[1],−1.6%
same,MCH % ChVh,[1],2.5%
same,MCHC % ChVh,[1],0.9%
same,MCV % ChVh,[1],1.4%
same,MONO % % ChVh,[1],21.2%
same,MONO (K/uL) % ChVh,[1],8.3%
same,MPV % ChVh,[1],−5.6%
same,NEUT % % ChVh,[1],97.8%
same,NEUT (K/uL) % ChVh,[1],87.2%
same,PLT % ChVh,[1],−29.0%
same,RBC % ChVh,[1],1.9%
same,RDW % % ChVh,[1],−0.6%
same,Right Kidney (% body wt) % ChVh,[1],−11.6%
same,Right Kidney (gm) % ChVh,[1],−15.4%
same,Spleen (% body wt) % ChVh,[1],17.6%
same,Spleen (gm) % ChVh,[1],13.6%
same,TBIL % ChVh,[1],0.0%
same,TP % ChVh,[1],4.3%
same,WBC % ChVh,[1],−7.7%
same,ALP FoldChVh,[2],1.0
same,ALT FoldChVh,[2],1.3
same,AST FoldChVh,[2],1.2
same,ALB,[3],3.1 g/dL
same,ALP,[3],124.3 U/L
same,ALT,[3],25.0 U/L
same,AST,[3],41.3 U/L
same,BASO,[3],0.00 K/uL
same,BASO %,[3],0.03%
same,BUN,[3],27.3 mg/d L
same,Body Weight,[3],16.680 gm
same,CRTN,[3],0.20 mg/dL
same,EOS,[3],0.01 K/uL
same,EOS %,[3],0.06%
same,GGT,[3],0.0 U/L
same,GLOB,[3],1.8 g/dL
same,HCT %,[3],45.6%
same,HGB,[3],13.7 g/dL
same,LYM,[3],4.31 K/uL
same,LYM %,[3],72.97%
same,MCH,[3],15.3 pg
same,MCHC,[3],30.0 g/dL
same,MCV,[3],50.9 fL
same,MONO,[3],0.13 K/uL
same,MONO %,[3],2.17%
same,MPV,[3],4.3 fL
same,NEUT,[3],1.46 K/uL
same,NEUT %,[3],24.77%
same,PLT,[3],725.8 K/uL
same,RBC,[3],8.96 M/uL
same,RDW %,[3],15.8%
same,TBIL,[3],0.18 mg/d L
same,TP,[3],4.9 g/dL
same,WBC,[3],5.91 K/uL
same,ALB,[4],3.3 g/dL and 3.0 g/dL and 2.9 g/dL and 3.1 g/dL
same,ALP,[4],116 U/L and 114 U/L and 123 U/L and 144 U/L
same,ALT,[4],26 U/L and 20 U/L (2×) and 34 U/L
same,AST,[4],51 U/L and 35 U/L (2×) and 44 U/L
same,BASO,[4],0.00 K/uL
same,BASO %,[4],0.07% and 0.04% and 0.00% (2×)
same,BUN,[4],27 mg/d L (2×) and 26 mg/d L and 29 mg/d L
same,Body Weight,[4],15.962 gm and 17.217 gm and 17.463 gm and 16.078 gm
same,CHOL,[4],68 mg/dL and 66 mg/dL (2×) and 64 mg/dL
same,CRTN,[4],0.2 mg/dL
same,Ca,[4],8.9 mg/dL and 9.0 mg/dL and 9.3 mg/dL (2×)
same,Cl,[4],116 mEq/L and 113 mEq/L (2×) and 114 mEq/L
same,EOS,[4],0.00 K/uL (2×) and 0.01 K/uL (2×)
same,EOS %,[4],0.01% and 0.14% and 0.00% and 0.10%
same,GGT,[4],0 U/L
same,GLOB,[4],1.8 g/dL (3×) and 1.9 g/dL
same,GLUC,[4],270 mg/dL and 335 mg/dL and 261 mg/dL and 323 mg/dL
same,HCT %,[4],48.3% and 45.1% and 43.9% and 45.0%
same,HGB,[4],14.3 g/dL and 13.8 g/dL and 13.0 g/dL and 13.5 g/dL
same,K,[4],4.6 mEq/L and 4.0 mEq/L and 4.4 mEq/L and 3.9 mEq/L
same,LYM,[4],3.64 K/uL and 4.96 K/uL and 3.49 K/uL and 5.13 K/uL
same,LYM %,[4],76.21% and 71.86% and 70.06% and 73.76%
same,Left Kidney,[4],0.108 gm and 0.133 gm and 0.138 gm and 0.125 gm and 0.75 % body wt and 0.77 % body wt and 0.79 % body wt and 0.78 % body wt
same,Liver,[4],0.807 gm and 0.969 gm and 0.914 gm and 0.843 gm and 5.06 % body wt and 5.63 % body wt and 5.23 % body wt and 5.24 % body wt
same,MCH,[4],15.4 Pg (2×) and 15.0 Pg and 15.2 Pg
same,MCHC,[4],29.6 g/dL (2×) and 30.6 g/dL and 30.0 g/dL
same,MCV,[4],51.9 fL and 50.4 fL and 50.5 fL and 50.6 fL
same,MONO,[4],0.08 K/uL and 0.24 K/uL and 0.09 K/uL and 0.12 K/uL
same,MONO %,[4],1.77% and 3.45% and 1.74% and 1.70%
same,MPV,[4],4.3 fL (3×) and 4.1 fL
